Reference: the supplement of paper PMC10307832

Assays:
Assay in all cases: relative viability (nuclei count vs DMSO), 5 days (fraction); higher = more cells survive
[1] = compound: O=C(CCCCCCC(=O)Nc1ccccc1)NO [Vorinostat] + COc1cccc2cc(-c3nc([C@H]4CC[C@H](C(=O)O)CC4)n4ncnc(N)c34)[nH]c12 [OSI-027] (partner 0.5 µM)
In short: (§1)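 Each reported value is a median over duplicate plates. It expresses relative viability: treated-well nuclei count divided by vehicle-well nuclei count. Lung cancer cell lines in 1536-well plates were dosed by pin tool a day after seeding, alone with one drug or with a fixed anchor-drug dose plus five library-drug doses (not always all listed) in √10 steps, and nuclei were counted after 5 days.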

[2] = compound: O=C(CCCCCCC(=O)Nc1ccccc1)NO [Vorinostat] + C[C@@H](Oc1cc(-c2cnn(C3CCNCC3)c2)cnc1N)c1c(Cl)ccc(F)c1Cl [Crizotinib] (partner 1 µM)
In short: as §1

[3] = compound: O=C(CCCCCCC(=O)Nc1ccccc1)NO [Vorinostat] + Cc1nc(NC(=O)N2CCC[C@H]2C(N)=O)sc1-c1ccnc(C(C)(C)C(F)(F)F)c1 [Alpelisib] (partner 2 µM)
In short: as §1

[4] = compound: O=C(CCCCCCC(=O)Nc1ccccc1)NO [Vorinostat] + Cc1nc(Nc2ncc(C(=O)Nc3c(C)cccc3Cl)s2)cc(N2CCN(CCO)CC2)n1 [Dasatinib] (partner 0.075 µM)
In short: as §1

[5] = compound: O=C(CCCCCCC(=O)Nc1ccccc1)NO [Vorinostat] + NC(=O)Nc1cc(-c2cccc(F)c2)sc1C(=O)N[C@H]1CCCNC1 [AZD7762] (partner 0.2 µM)
In short: as §1

| Cell Line | relative viability ([1]; first compound 0.253 µM) | relative viability ([1]; first compound 0.8 µM) | relative viability ([1]; first compound 2.53 µM) | relative viability ([1]; first compound 8 µM) | relative viability ([2]; first compound 0.253 µM) | relative viability ([2]; first compound 0.8 µM) | relative viability ([2]; first compound 2.53 µM) | relative viability ([2]; first compound 8 µM) | relative viability ([3]; first compound 0.253 µM) | relative viability ([3]; first compound 0.8 µM) | relative viability ([3]; first compound 2.53 µM) | relative viability ([3]; first compound 8 µM) | relative viability ([4]; first compound 0.253 µM) | relative viability ([4]; first compound 0.8 µM) | relative viability ([4]; first compound 2.53 µM) | relative viability ([4]; first compound 8 µM) | relative viability ([5]; first compound 0.253 µM) | relative viability ([5]; first compound 0.8 µM) | relative viability ([5]; first compound 2.53 µM) | relative viability ([5]; first compound 8 µM) |
| --- | --- | --- | --- | --- | --- | --- | --- | --- | --- | --- | --- | --- | --- | --- | --- | --- | --- | --- | --- | --- |
| NCI-H1975 | 0.783 | 0.609 | 0.231 | 0.121 | 1.04 | 0.679 | 0.174 | 0.134 | 0.696 | 0.528 | 0.189 | 0.133 | 0.407 | 0.32 | 0.162 | 0.0818 | 0.791 | 0.641 | 0.272 | 0.197 |
| LOU-NH91 | 0.828 | 0.62 | 0.516 | 0.303 | 0.755 | 0.746 | 0.599 | 0.362 | 0.792 | 0.676 | 0.452 | 0.322 | 0.661 | 0.577 | 0.544 | 0.361 | 0.757 | 0.739 | 0.548 | 0.414 |
| HOP-62 | 0.985 | 0.649 | 0.378 | 0.0983 | 0.972 | 0.831 | 0.251 | 0.0671 | 1.25 | 0.947 | 0.49 | 0.0804 | 0.888 | 0.501 | 0.225 | 0.0813 | 0.258 | 0.518 | 0.145 | 0.0514 |
| LC-2-ad | 0.81 | 0.508 | 0.206 | 0.159 | 0.368 | 0.361 | 0.268 | 0.178 | 0.816 | 0.644 | 0.0538 | 0.0781 | 0.585 | 0.235 | 0.127 | 0.124 | 0.867 | 0.632 | 0.226 | 0.159 |
| NCI-H650 | 0.514 | 0.458 | 0.175 | 0.129 | 0.716 | 0.503 | 0.155 | 0.165 | 1.43 | 0.933 | 0.191 | 0.146 | 0.475 | 0.357 | 0.196 | 0.126 | 0.606 | 0.737 | 0.235 | 0.165 |
| NCI-H2126 | 0.761 | 0.572 | 0.506 | 0.209 | 0.961 | 1.01 | 0.538 | 0.203 | 0.733 | 0.653 | 0.365 | 0.199 | 0.608 | 0.566 | 0.216 | 0.158 | 0.999 | 0.989 | 0.774 | 0.208 |
| NCI-H2170 | 0.78 | 0.759 | 0.569 | 0.144 | 1.29 | 0.967 | 0.229 | 0.149 | 0.823 | 0.69 | 0.235 | 0.141 | 0.68 | 0.459 | 0.355 | 0.14 | 1.23 | 0.923 | 0.332 | 0.106 |
| NCI-H1437 | 0.934 | 0.467 | 0.197 | 0.146 | 0.876 | 0.894 | 0.429 | 0.0993 | 0.858 | 0.738 | 0.152 | 0.104 | 0.459 | 0.183 | 0.152 | 0.137 | 1.23 | 0.9 | 0.426 | 0.197 |
| PC-3 [JPC-3] | 0.68 | 0.727 | 0.378 | 0.175 | 0.955 | 0.97 | 0.41 | 0.228 | 1.01 | 0.979 | 0.572 | 0.259 | 1 | 1 | 0.593 | 0.227 | 0.834 | 0.526 | 0.306 | 0.271 |
| NCI-H1944 | 0.413 | 0.287 | 0.226 | 0.165 | 0.965 | 0.631 | 0.292 | 0.125 | 0.849 | 0.566 | 0.409 | 0.151 | 0.204 | 0.184 | 0.178 | 0.174 | 0.328 | 0.27 | 0.19 | 0.104 |
| NCI-H1915 | 0.632 | 0.5 | 0.205 | 0.152 | 0.985 | 0.847 | 0.248 | 0.0881 | 1.16 | 1 | 0.4 | 0.0675 | 0.324 | 0.24 | 0.164 | 0.108 | 0.692 | 0.673 | 0.377 | 0.102 |
| BEN | 0.287 | 0.24 | 0.0754 | 0.0473 | 1.06 | 0.553 | 0.147 | 0.0454 | 1.07 | 0.457 | 0.154 | 0.0775 | 0.306 | 0.233 | 0.157 | 0.06 | 0.645 | 0.661 | 0.439 | 0.125 |
| NCI-H2085 | 0.722 | 0.463 | 0.415 | 0.205 | 0.8 | 0.831 | 0.436 | 0.181 | 0.982 | 0.947 | 0.514 | 0.255 | 0.24 | 0.252 | 0.223 | 0.225 | 0.962 | 0.898 | 0.518 | 0.207 |
| CAL-12T | 0.814 | 0.746 | 0.292 | 0.0987 | 0.901 | 0.443 | 0.207 | 0.0708 | 1.18 | 1.07 | 0.462 | 0.0781 | 0.481 | 0.471 | 0.269 | 0.0806 | 0.639 | 0.603 | 0.337 | 0.162 |
| NCI-H2347 | 0.363 | 0.382 | 0.149 | 0.164 | 0.793 | 0.715 | 0.379 | 0.283 | 1.11 | 1.08 | 0.526 | 0.221 | 0.283 | 0.295 | 0.271 | 0.189 | 0.595 | 0.696 | 0.456 | 0.226 |
| EMC-BAC-2 | 0.356 | 0.316 | 0.173 | 0.146 | 0.817 | 0.558 | 0.166 | 0.107 | 0.88 | 0.745 | 0.409 | 0.113 | 0.311 | 0.204 | 0.169 | 0.108 | 1.02 | 0.653 | 0.447 | 0.174 |
